Measurements: US4046765A, “Dihydroquinoline derivatives of antioxidant activity and a process for the preparation thereof” (priority 1971, dated 1977)
Structures can show the parent of a compound that is named as a salt.

Columns and labels:
rats [1] = conditions: rat, in vivo
Description: (§1) Since the novel compounds are completely nontoxic, they can be used with great advantage in animal husbandry and in the food industry, as well as in therapy. On the basis of the investigations carried out on the acute and chronic toxicity of these new active agents, it can be stated that they are completely free of the disadvantages of the hitherto-known antioxidants mentioned above, first of all as regards their use in therapy.

[2] = antioxidant effect on fish-meal samples, oxygen uptake in Warburg apparatus and peroxide number; conditions: 40 g. fish meal + 0.04 g. antioxidant; for oxygen uptake (decrease of O2 pressure): 29° C., Warburg apparatus, control 19.5; for Peroxide Number: calculated for 1 g. of fish meal, after treatment with oxygen, control 7.83
Experimental: The antioxidant effect of the new substances shown in foodstuffs and nutriments was investigated on fish-meal samples. […] In these experiments the oxygen uptake of fish-meal samples containing the various antioxidants was determined in a Warburg apparatus at 29° C., and the results were compared with those measured on samples containing no antioxidant. The peroxide number of samples treated with oxygen was also determined.

malignant tumors = experiment: appearance of malignant tumors in animals treated with minimum irradiation doses for a long period; format: in vivo; conditions: versus irradiated untreated animals
Description: Another important and unexpected property of the new substances is that they exert radiosensibilizing effect. […] On the basis of this property, the new compounds can also be used for the potentiating of the effect of irradiation therapy.

[3] = tested on: liver cirrhosis caused by carbon tetrachloride; experiment: prophylactic activity against liver cirrhosis caused by carbon tetrachloride; format: in vivo
rats [4] = experiment: chronic toxicity of XAX, continuous administration to rats; format: in vivo, rat
Description: as §1

serum cholesterol = serum cholesterol lowering in rabbits treated with cholesterol; format: in vivo, rabbit; conditions: 1 g. cholesterol per day, XAX 0.06 g./kg. daily, 70 or 105 days
Experimental: Due to this fact they can also be used for the prophylaxis and treatment of arteriosclerosis. This effect of the new substances was investigated on rabbits treated with 1 g. of cholesterol per day. The animals were treated for 70 or 105 days with daily doses of 0.06 g./kg. of XAX. […] Using the hitherto-known antioxidants, this very favorable and important effect could not be reached at all.

[5] = known antioxidant; cited from earlier work
[6] = biological systems, foodstuff mixtures; cited from earlier work
[7] = 0.56 g./kg., longer period, animals; cited from earlier work
rats [8] = conditions: 0.50 g./kg., 14 days; cited from earlier work
solubility = format: physicochemical
[9] = tested on: encephalomalacia of poultries; conditions: compared with EMQ; cited from earlier work
[10] = in vivo; cited from earlier work
[11] = 90 days, versus untreated animals

CC1=CC(C)(C)Nc2ccc(Cc3ccc4c(c3)C(C)=CC(C)(C)N4)cc21 [XAX, bis-(2,2,4-trimethyl-1,2-dihydroquinolyl-6)-methane]
toxic symptoms (rats [1]): no toxic symptoms
oxygen uptake (decrease of O2 pressure) [2]: 11.5 mmHg
Peroxide Number [2]: 1.54
appearance of malignant tumors (malignant tumors): could be suppressed
prophylactic activity against liver cirrhosis [3]: great prophylactic activity
weight gain and blood picture (rats [4]; [11]): Neither the weight gain nor the blood picture of the animals was harmfully affected
weight gain of some organs (rats [4]; [11]): no excessive weight gain of some organs of the animals could be observed
damaging of tissues or cells (rats [4]; daily 0.25 mg./kg., 3 weeks): no damaging of tissues or cells could be observed
cholesterol level of the blood (serum cholesterol): the cholesterol level of the blood decreased to a great extent

c1ccc(Nc2ccc(Nc3ccccc3)cc2)cc1 [DPPD, N,N'-diphenyl-p-phenylenediamine]
cancer-inducing effect [5]: cancer-inducing effect
activity as antioxidant [6]: relatively low activity

CCOc1ccc2c(c1)C(C)=CC(C)(C)N2 [EMQ, 6-ethoxy-2,2,4-trimethyl-1,2-dihydroquinoline]
appetite [7]: may cause appetite lowering
gain in weight [7]: lowers the gain in weight
oxygen uptake (decrease of O2 pressure) [2]: 23.5 mmHg
Peroxide Number [2]: 2.87
appetite (rats [8]): the appetite of the animals was lowered
size of the liver (rats [8]): an increase in size of the liver was observed

CC1=CC(C)(C)Nc2ccc(Cc3ccc4c(c3)C(C)=CC(C)(C)N4)cc21 [Example 9, bis-(2,2,4-trimethyl-1,2-dihydroquinolyl-6)-methane-dihydrochloride]
solubility in water and alcohol (solubility): soluble in water and alcohol

CC1=CC(C)(C)Nc2ccc(Cc3ccc4c(c3)C(C)=CC(C)(C)N4)cc21 [sulfuric acid salt of XAX]
solubility in water and alcohol (solubility): soluble in water and alcohol

Cc1cc(C(C)(C)C)c(O)c(C(C)(C)C)c1 [BHT]
activity in encephalomalacia of poultries versus EMQ [9]: far lower activity than EMQ
oxygen uptake (decrease of O2 pressure) [2]: 16.5 mmHg
Peroxide Number [2]: 3.42
teratogeneous effect (anophthalmia) [10]: the appearance of anophthalmia was observed, indicating that the compound exerts a teratogeneous effect

CC1=CC(C)(C)Nc2ccc(Cc3ccc4c(c3)C(C)=CC(C)(C)N4)cc21 [Example 8, bis-(2,2,4-trimethyl-1,2-dihydroquinolyl-6)-methane]
solubility in water and alcohol (solubility): well soluble in water and alcohol
